The test system of the assay is CD8F1 mice, subcutaneous mammary adenocarcinoma, T/C%. In words: NCI In Vivo Anticancer Drug Screen. Data for tumor model Mammary Adenocarcinoma CD8F1 (subcutaneous) in CD8F1. The note with it: higher = larger tumour. The essentials:
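Compound-treated versus vehicle-treated mice with transplantable tumors; survival or tumor size compared as T/C.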

The mark [1] stands for this setting: endpoint: median tumor weight (est.), dose: 25.0 mg/kg/injection, schedule: Q07DX005 (ip), vehicle: saline with Tween-80.
Setting [2] is: endpoint: median tumor weight (est.), dose: 100.0 mg/kg/injection, schedule: Q07DX005 (ip), vehicle: saline with Tween-80.
Setting [3] is: endpoint: median tumor weight (est.), dose: 12.5 mg/kg/injection, schedule: Q07DX005 (ip), vehicle: saline with Tween-80.
[4] abbreviates: endpoint: median tumor weight change, dose: 1000.0 mg/kg/injection, schedule: Q01DX001 (ip), vehicle: saline with Tween-80.
Setting [5] is: endpoint: median tumor weight change, dose: 125.0 mg/kg/injection, schedule: Q01DX001 (ip), vehicle: saline.
Setting [6] is: endpoint: median tumor weight (est.), dose: 25.0 mg/kg/injection, schedule: Q07DX005 (ip), vehicle: saline.

This note sets out measurements from PubChem BioAssay AID220 (DTP/NCI, 2004).

The structures appear in SMILES notation. Values joined by “and” are separate entries in the source; they are usually repeats but may differ in a detail not shown here. Equal values may be shown once. Inconclusive results are not listed.

`CN(C)/N=N/c1nc[nH]c1C(N)=O`: the T/C is 102 % of control (endpoint: median tumor weight (est.), dose: 25.0 mg/kg/injection, schedule: Q07DX004 (ip), vehicle: saline); 118 % of control (endpoint: median tumor weight (est.), dose: 25.0 mg/kg/injection, schedule: Q07DX005 (ip), vehicle: Klucel (hydroxypropylcellulose) (HPC)); 111 % of control (endpoint: median tumor weight (est.), dose: 50.0 mg/kg/injection, schedule: Q07DX004 (ip), vehicle: saline); 81 % of control (endpoint: median tumor weight (est.), dose: 50.0 mg/kg/injection, schedule: Q07DX005 (ip), vehicle: Klucel (hydroxypropylcellulose) (HPC)); 90 % of control (endpoint: median tumor weight (est.), dose: 100.0 mg/kg/injection, schedule: Q07DX004 (ip), vehicle: saline); 46 % of control (endpoint: median tumor weight (est.), dose: 100.0 mg/kg/injection, schedule: Q07DX005 (ip), vehicle: Klucel (hydroxypropylcellulose) (HPC)). For the same compound, the T/C was 62 % of control (endpoint: median tumor weight (est.), dose: 200.0 mg/kg/injection, schedule: Q07DX004 (ip), vehicle: saline); 26 % of control (endpoint: median tumor weight (est.), dose: 200.0 mg/kg/injection, schedule: Q07DX005 (ip), vehicle: Klucel (hydroxypropylcellulose) (HPC)); 13 % of control (endpoint: median tumor weight (est.), dose: 400.0 mg/kg/injection, schedule: Q07DX004 (ip), vehicle: saline); 16 % of control (endpoint: median tumor weight (est.), dose: 400.0 mg/kg/injection, schedule: Q07DX005 (ip), vehicle: Klucel (hydroxypropylcellulose) (HPC)).
For `CC(=S)NC(O)C(=O)c1ccccc1` (centres undefined), the T/C reads like this: under setting [1], 79 % of control; under setting [2], 96 % of control; (endpoint: median tumor weight (est.), dose: 200.0 mg/kg/injection, schedule: Q07DX005 (ip), vehicle: saline with Tween-80) 111 % of control.
As for `CNC(=O)c1cccc2c(Nc3ccc(NS(C)(=O)=O)cc3OC)c3cccc(C)c3nc12`, the T/C reads like this: (endpoint: median tumor weight change, dose: 60.0 mg/kg/injection, schedule: Q01DX001 (ip), vehicle: water) 6 % of control; (endpoint: median tumor weight change, dose: 62.5 mg/kg/injection, schedule: Q01DX001 (ip), vehicle: water) -63 % of control; (endpoint: median tumor weight change, dose: 120.0 mg/kg/injection, schedule: Q01DX001 (ip), vehicle: other) -68 % of control.
Turning to `c1cnc2ncncc2n1`, the T/C runs as follows: under setting [3], 84 % of control and 100 % of control; under setting [1], 93 % of control and 100 % of control; (endpoint: median tumor weight (est.), dose: 50.0 mg/kg/injection, schedule: Q07DX005 (ip), vehicle: saline with Tween-80) 69 % of control and 84 % of control; under setting [2], 92 % of control and 99 % of control.
Take `CC(=O)Nc1cscc1NC(C)=O`: the T/C reads like this: (endpoint: median tumor weight change, dose: 250.0 mg/kg/injection, schedule: Q01DX001 (ip), vehicle: saline with Tween-80) 73 % of control and 85 % of control; (endpoint: median tumor weight change, dose: 500.0 mg/kg/injection, schedule: Q01DX001 (ip), vehicle: saline with Tween-80) 71 % of control and 73 % of control; under setting [4], 74 % of control and 91 % of control.
Take `C=C(C)C1C2CC3(C)C4(CO4)C4OC4C3(O)C1C(=O)O2` (centres undefined): the T/C (endpoint: median tumor weight change, dose: 1.25 mg/kg/injection, schedule: Q01DX001 (ip), vehicle: Klucel (hydroxypropylcellulose) (HPC)) was 85 % of control.
As to `C[Si](C)(C)O/C=C1/CCOC1=O`, the T/C under setting [5] was 96 % of control; the T/C (endpoint: median tumor weight change, dose: 500.0 mg/kg/injection, schedule: Q01DX001 (ip), vehicle: saline) was 82 % of control; the T/C (endpoint: median tumor weight change, dose: 1000.0 mg/kg/injection, schedule: Q01DX001 (ip), vehicle: saline) was 72 % of control.
In the case of `C=CS(C=C)=NS(=O)(=O)c1ccc(C)cc1`, the T/C was 94 % of control (endpoint: median tumor weight (est.), dose: 3.12 mg/kg/injection, schedule: Q07DX005 (ip), vehicle: Klucel (hydroxypropylcellulose) (HPC)); 101 % of control (endpoint: median tumor weight (est.), dose: 6.25 mg/kg/injection, schedule: Q07DX005 (ip), vehicle: Klucel (hydroxypropylcellulose) (HPC)); 89 % of control (endpoint: median tumor weight (est.), dose: 12.5 mg/kg/injection, schedule: Q07DX005 (ip), vehicle: Klucel (hydroxypropylcellulose) (HPC)).
Turning to `O=c1[nH]c(=O)n(C2OC(CO)C(O)C2O)cc1F` (centres undefined), the T/C was 79 % of control (endpoint: median tumor weight (est.), dose: 1.56 mg/kg/injection, schedule: Q07DX005 (ip), vehicle: saline); 103 % of control (endpoint: median tumor weight (est.), dose: 3.12 mg/kg/injection, schedule: Q07DX005 (ip), vehicle: saline); 75 % of control (endpoint: median tumor weight (est.), dose: 6.25 mg/kg/injection, schedule: Q07DX005 (ip), vehicle: saline); 45 % of control (endpoint: median tumor weight (est.), dose: 12.5 mg/kg/injection, schedule: Q07DX005 (ip), vehicle: saline); 11 % of control under setting [6].
On to `CCC(C(=O)O)C(=O)O.[NH2-].[NH2-].[Pt+2]`, for which the T/C was 172 % of control (endpoint: median tumor weight change, dose: 15.62 mg/kg/injection, schedule: Q01DX001 (ip), vehicle: saline); 121 % of control (endpoint: median tumor weight change, dose: 16.0 mg/kg/injection, schedule: Q01DX001 (ip), vehicle: saline); 46 % of control (endpoint: median tumor weight change, dose: 31.0 mg/kg/injection, schedule: Q01DX001 (ip), vehicle: saline); 87 % of control (endpoint: median tumor weight change, dose: 31.25 mg/kg/injection, schedule: Q01DX001 (ip), vehicle: saline); 68 % of control (endpoint: median tumor weight change, dose: 62.0 mg/kg/injection, schedule: Q01DX001 (ip), vehicle: saline); 92 % of control (endpoint: median tumor weight change, dose: 62.5 mg/kg/injection, schedule: Q01DX001 (ip), vehicle: saline). Besides, under setting [5], the T/C is 2 % of control and 26 % of control.
Regarding `NCCc1ccc(O)c(O)c1`, the T/C (endpoint: mean tumor weight, dose: 300.0 mg/kg/injection, schedule: Q07DX005 (ip), vehicle: saline) is 39 % of control; the T/C (endpoint: mean tumor weight, dose: 600.0 mg/kg/injection, schedule: Q07DX005 (ip), vehicle: saline) is 87 % of control; the T/C under setting [6] is 62 % of control; the T/C (endpoint: median tumor weight (est.), dose: 200.0 mg/kg/injection, schedule: Q07DX005 (ip), vehicle: saline) was 83 % of control; the T/C (endpoint: median tumor weight (est.), dose: 300.0 mg/kg/injection, schedule: Q07DX005 (ip), vehicle: saline) was 74 % of control.
As to `CC1OC(OC2CC(O)(C(=O)CO)Cc3c(O)c4c(c(O)c32)C(=O)c2ccccc2C4=O)CC(N)C1O` (centres undefined), the T/C was 40 % of control (endpoint: mean tumor weight, dose: 0.12 mg/kg/injection, schedule: Q07DX006 (ip), vehicle: saline); 1 % of control (endpoint: mean tumor weight, dose: 0.5 mg/kg/injection, schedule: Q07DX006 (ip), vehicle: saline); 67 % of control (endpoint: median tumor weight change, dose: 0.31 mg/kg/injection, schedule: Q01DX001 (ip), vehicle: water); 37 % of control (endpoint: median tumor weight change, dose: 0.62 mg/kg/injection, schedule: Q01DX001 (ip), vehicle: water); 26 % of control and 28 % of control (endpoint: median tumor weight change, dose: 1.25 mg/kg/injection, schedule: Q01DX001 (ip), vehicle: water).
With `Nc1c(C(=O)O)[nH]c(=O)[nH]c1=O`, the T/C under setting [3] was 83 % of control.
For the compound `O=[N+]([O-])c1ccc(Sc2ccncn2)c([N+](=O)[O-])c1`, the T/C is 108 % of control (endpoint: median tumor weight change, dose: 62.5 mg/kg/injection, schedule: Q01DX001 (ip), vehicle: saline with Tween-80) and 62 % of control (endpoint: median tumor weight change, dose: 125.0 mg/kg/injection, schedule: Q01DX001 (ip), vehicle: saline with Tween-80).
Regarding `O=C1CC2(C(=O)N1CN1CCOCC1)c1ccccc1-c1ccccc12`, the T/C is 167 % of control (endpoint: median tumor weight change, dose: 250.0 mg/kg/injection, schedule: Q01DX001 (ip), vehicle: Klucel (hydroxypropylcellulose) (HPC)); 102 % of control (endpoint: median tumor weight change, dose: 500.0 mg/kg/injection, schedule: Q01DX001 (ip), vehicle: Klucel (hydroxypropylcellulose) (HPC)); 40 % of control (endpoint: median tumor weight change, dose: 1000.0 mg/kg/injection, schedule: Q01DX001 (ip), vehicle: Klucel (hydroxypropylcellulose) (HPC)).
Regarding `COCCCNC1=C(C#N)C(=O)NC(c2cccc([N+](=O)[O-])c2)S1` (centres undefined), the T/C was 95 % of control and 110 % of control under setting [4]; 79 % of control (endpoint: median tumor weight change, dose: 2000.0 mg/kg/injection, schedule: Q01DX001 (ip), vehicle: saline with Tween-80).
Regarding `[I][Hg][CH2]C1COC([CH2][Hg][I])CO1` (centres undefined), the T/C by setting is: (endpoint: median tumor weight (est.), dose: 6.25 mg/kg/injection, schedule: Q07DX005 (ip), vehicle: suspension in saline) 103 % of control; (endpoint: median tumor weight (est.), dose: 12.5 mg/kg/injection, schedule: Q07DX005 (ip), vehicle: suspension in saline) 167 % of control; (endpoint: median tumor weight (est.), dose: 25.0 mg/kg/injection, schedule: Q07DX005 (ip), vehicle: suspension in saline) 227 % of control; (endpoint: median tumor weight (est.), dose: 50.0 mg/kg/injection, schedule: Q07DX005 (ip), vehicle: suspension in saline) 27 % of control.
